Test results from ChEMBL document CHEMBL3301361, “Experimental in vitro DMPK and physicochemical data on a set of publicly disclosed compounds”.
Values after ≈ are worked out from the molar mass of the structure shown.

What was measured:
[1] = physchem; settings: octan-1-ol/water
[2] = physchem; settings: pH 7.4 buffer

Compound	logD ([1]; pH 7.4, LogD7.4)	solubility thermodynamic [2] [µM]	logD ([1]; pH 7.4)
CCn1c2nc(=O)n(C)c(=O)c-2cc2ccccc21	1.1	324 (≈ 82.6 µg/mL)	–
Cc1ncc(-c2nc(Nc3ccc(C(=O)NC4CCN(C)CC4)c(F)c3)ncc2F)n1C(C)C	2.41	275 (≈ 129 µg/mL)	–
O=c1cc(-c2ccc(O)cc2)oc2cc(O)ccc12	3.2	2.3 (≈ 0.585 µg/mL)	–
Cc1cc(C)cc(-c2[nH]c3ccc(C(C)(C)C(=O)N4C5CCC4CC5)cc3c2[C@H](C)CNCCc2ccncc2)c1	4.35	148 (≈ 81.2 µg/mL)	–
CCn1c(=O)c2[nH]c(-c3ccccc3)nc2n(CC)c1=O	3.3	2.1 (≈ 0.597 µg/mL)	–
Nc1ncnc(Nc2ccccc2)n1 [AMANOZINE]	1.4	246 (≈ 46 µg/mL)	–
COCCOCCOc1ccc(-c2cc(C(N)=O)c(NC(N)=O)s2)cc1	2.21	20.9 (≈ 7.93 µg/mL)	–
CCOC(=O)c1ccc(OCCC2CN(c3ccc(C)nn3)C2)cc1	3.22	347 (≈ 118 µg/mL)	–
CSCc1cc(N2CCOCC2)nc(-c2ccccc2)n1	3.26	55 (≈ 16.6 µg/mL)	–
O=S(=O)(Nc1nc(-c2sccc2Cl)cs1)c1cc(Cl)ccc1Cl	2.11	151 (≈ 64.5 µg/mL)	–
COc1cc2ncnc(Nc3cccc(Cl)c3F)c2cc1CN(C)C1(C(N)=O)CCN(C)CC1	2.16	282 (≈ 137 µg/mL)	–
CC(=O)Nc1nc(-c2cccs2)cs1	–	100 (≈ 22.4 µg/mL)	2.77
O=c1cc(N2CCOCC2)oc2c(-c3ccccc3)cccc12 [LY-294002]	2.9	302 (≈ 92.8 µg/mL)	–
CSc1nc(N)nc(-c2ccccc2)n1	2.98	24 (≈ 5.24 µg/mL)	–
c1ccc(Nc2cc(Nc3ccccc3)[nH]n2)cc1	3.8	12.6 (≈ 3.15 µg/mL)	–
C[C@@H](Oc1cccc2ncnc(Nc3ccc4c(cnn4Cc4ccccn4)c3)c12)C(=O)N1CCOCC1	2.82	95.5 (≈ 48.7 µg/mL)	–
CCOC(=O)Cc1csc(NS(=O)(=O)c2ccc(Cl)cc2)n1	1.32	417 (≈ 150 µg/mL)	–
O=C(c1ccc(Cl)cc1)C1CCN(C(=O)C2CC2)CC1	2.72	190 (≈ 55.6 µg/mL)	–
COc1cc(C(=O)N2CCOCC2)ccc1Nc1ncc(Cl)c(-c2cnc3ccccn23)n1	3.4	1.6 (≈ 0.744 µg/mL)	–
COC[C@H](C)Oc1cc(Oc2cc(F)cc(F)c2)cc(C(=O)Nc2ccc(C(=O)O)cn2)c1	1.36	832 (≈ 381 µg/mL)	–
CNC(=O)c1cc(-c2nc(N3CCOCC3)cc(C3(S(C)(=O)=O)CC3)n2)c2cc[nH]c2c1	1.7	46.8 (≈ 21.3 µg/mL)	–
Cc1ccc(Oc2ccc(Nc3ncnc4cccc(O[C@H](C)C(=O)N(C)CCO)c34)cc2C)cn1	3.85	63.1 (≈ 30.8 µg/mL)	–
COc1ccc(C(=O)Nc2cccc(NC(=O)c3cccc(N(C)C)c3)c2)cc1OC	3.67	1.4 (≈ 0.587 µg/mL)	–
Cc1ncc(-c2ccnc(Nc3ccc(F)cc3)n2)n1C(C)C	3.62	107 (≈ 33.4 µg/mL)	–
O=C(Nc1ncc(F)s1)[C@H](CC1CCOCC1)c1ccc(S(=O)(=O)C2CC2)cc1	3.19	214 (≈ 93.8 µg/mL)	–
CC(=O)N1CCN(CCOc2cc(OC(C)C)c3c(Nc4c(F)ccc5c4OCO5)ncnc3c2)CC1	3.06	27.5 (≈ 14.1 µg/mL)	–

Compound	logD ([1]; pH 7.4, LogD7.4)	solubility thermodynamic [2] [µM]	logD ([1]; pH 7.4)
Cc1nc(CS(=O)(=O)c2ccc(Cl)cc2)cc(N2CCOCC2)n1	1.8	224 (≈ 82.4 µg/mL)	–
CC(=O)OCCn1c(Sc2nc3cccc(Cl)c3s2)nc2c(N)ncnc21	3.16	4 (≈ 1.68 µg/mL)	–
O=C(NCc1ccncc1)c1ccc(Oc2ccc(C#C[C@]3(O)CN4CCC3CC4)cc2)cc1	–	302 (≈ 137 µg/mL)	2.42
CC(C)OC(=O)N1CCC(Oc2ncnc3c2cnn3-c2ccc(S(C)(=O)=O)cc2F)CC1	3	2.1 (≈ 1 µg/mL)	–
Cc1nc(C)c(-c2ccc([C@H]3CC[C@H](CC(=O)O)CC3)c(Cl)c2)nc1C(N)=O	1.8	209 (≈ 84 µg/mL)	–
CCc1ccc(CCOc2ccc(CC3SC(=O)NC3=O)cc2)nc1 (stereo unspecified) [PIOGLITAZONE]	2.8	2 (≈ 0.713 µg/mL)	–
COc1cc(Nc2cc(Oc3cccnc3)ccn2)cc(OC)c1OC	2.66	93.3 (≈ 33 µg/mL)	–
CSc1ccc(OCc2ccccc2)c(C(=O)Nc2ccc(C(=O)O)cn2)c1	1.6	200 (≈ 78.7 µg/mL)	–
CS(=O)(=O)c1cccc(Nc2nccc(Nc3cccc4c3OCC4)n2)c1	3	44.7 (≈ 17.1 µg/mL)	–
NC(=O)c1c(OCc2c(F)cc(Br)cc2F)nsc1NC(=O)NCCCCN1CCCC1 [OSI-632]	2.5	77.6 (≈ 41.3 µg/mL)	–
CCOc1cc2nccc(Oc3cnc(CC(=O)Nc4n[nH]c(CC)c4C)c(OC)c3)c2cc1OC	3.29	2.2 (≈ 1.08 µg/mL)	–
CNC(=O)c1ccccc1Sc1ccc2c(/C=C/c3ccccn3)n[nH]c2c1 [AXITINIB]	3.8	0.5 (≈ 0.193 µg/mL)	–
CCCSc1nc(Oc2ccc(CC(=O)O)cc2)ccc1C(=O)NC1CCCCC1	1.79	550 (≈ 235 µg/mL)	–
Cc1cc(S(=O)(=O)Nc2nc(Nc3ccc(Cl)cc3)n[nH]2)c(S)cc1Cl	2.09	87.1 (≈ 37.5 µg/mL)	–
COc1ccc(C)c(N(C)c2ccnc(Nc3cc(N4CCOCC4)cc(N4CCOCC4)c3)n2)c1	3.18	11.5 (≈ 5.64 µg/mL)	–
CS(=O)(=O)c1ccc(C(=O)Nc2ccc(F)cc2)c[n+]1[O-]	0.84	219 (≈ 67.9 µg/mL)	–
CC(C)Oc1cc(OCCc2ccsc2)cc(C(=O)Nc2ccc(C(=O)O)cn2)c1	1.74	33.9 (≈ 14.5 µg/mL)	–
COc1cc2ncnc(Nc3ccc(F)c(Cl)c3)c2cc1OC	3.67	7.2 (≈ 2.4 µg/mL)	–
COc1cc2c(Nc3ccc(Cl)cc3F)ncnc2cc1OCCCN1CCOCC1	3.4	21.9 (≈ 9.79 µg/mL)	–
COc1cc2ncnc(Nc3cccc(Cl)c3F)c2cc1CN1CCC[C@H]1C(N)=O	3.58	257 (≈ 110 µg/mL)	–
COc1cc2ncnc(Nc3ccc(F)c(Cl)c3)c2cc1OCCCN1CCCCC1	3.3	20 (≈ 8.9 µg/mL)	–
Cn1c(C#N)ccc1-c1cc(F)c2c(c1)C(C)(C)C(=O)N2	3.21	5.4 (≈ 1.53 µg/mL)	–
COc1cc2ncnc(Nc3cccc(Cl)c3F)c2cc1CN1CCC[C@@H]1C(N)=O	3.58	195 (≈ 83.8 µg/mL)	–
NC(=O)COc1ccc(OCCNCC(O)COc2ccccc2)cc1 (stereo unspecified)	0.63	661 (≈ 238 µg/mL)	–
Clc1ccc(-c2nnc3cccc(Cl)n23)c(Cl)c1	2.88	52.5 (≈ 15.7 µg/mL)	–
Cc1ccc(CO)cc1N(C)c1ccnc(Nc2cc(N3CCCC3)cc(N3CCOCC3)c2)n1	3.8	11.5 (≈ 5.46 µg/mL)	–

Compound	logD ([1]; pH 7.4, LogD7.4)	solubility thermodynamic [2] [µM]	logD ([1]; pH 7.4)
CN(C)C(=O)[C@H](Cc1ccccc1)NC(=O)c1cc2sccc2[nH]1	3.1	17 (≈ 5.8 µg/mL)	–
CN1CCN(S(=O)(=O)c2ccc(-c3cnc(N)c(C(=O)Nc4cccnc4)n3)cc2F)CC1	2.66	2.7 (≈ 1.27 µg/mL)	–
Cc1cc(NC(=O)c2ccccc2)n[nH]1	1.75	813 (≈ 164 µg/mL)	–
NC(=O)c1sc(-c2ccsc2)cc1NS(=O)(=O)c1ccc(C(F)(F)F)cc1	2.39	4.8 (≈ 2.08 µg/mL)	–
FC(F)(F)c1nnc2ccc(N3CCCC3)nn12	2.41	417 (≈ 107 µg/mL)	–
NC1=NN(c2cccc(C(F)(F)F)c2)CC1 [BW-755C]	2.55	1450 (≈ 331 µg/mL)	–
Nc1cccc(NC(=O)c2ccc(CNC(=O)OCc3cccnc3)cc2)c1	1.6	21.9 (≈ 8.24 µg/mL)	–
COc1cc(Nc2nccc(N(C)c3cc(CO)ccc3C)n2)cc(N2CCOCC2)c1	3.9	56.2 (≈ 24.5 µg/mL)	–
CS(=O)(=O)c1cccc(Nc2nccc(N(CC#N)c3c(Cl)ccc4c3OCO4)n2)c1	3.16	1.3 (≈ 0.595 µg/mL)	–
CS(=O)(=O)Cc1cc(N2CCOCC2)nc(-c2cccc3cc[nH]c23)n1	2.8	1.1 (≈ 0.41 µg/mL)	–
O=C1CN2Cc3c(ccc(Cl)c3Cl)N=C2N1 [ANAGRELIDE]	1.86	5.4 (≈ 1.38 µg/mL)	–
CCc1cc(OCc2ccc(-c3ccccc3-c3nnn[nH]3)cc2)c2c(n1)CCCC2	1.7	23.4 (≈ 9.63 µg/mL)	–
C[C@@H](Oc1cccc2ncnc(Nc3ccc4c(cnn4Cc4ccccn4)c3)c12)C(=O)N(C)C	2.89	295 (≈ 138 µg/mL)	–
COc1cc2c(c(OC)c1OC)-c1ccc(O)cc1[C@@H](NC(C)=O)CC2 [N-ACETYLCOLCHINOL]	–	813 (≈ 290 µg/mL)	1.81
Cc1ccccc1Nc1ncnc2ccccc12	2.85	417 (≈ 98.1 µg/mL)	–
Cc1nc(C)c(-c2ccc(C34CCC(CC(=O)O)(CC3)CC4)cc2)nc1C(N)=O	1.6	112 (≈ 44.1 µg/mL)	–
CC1(COc2cc(-c3cccc4c(=O)cc(N5CCOCC5)oc34)ccc2NC(=O)CN2CCOCC2)COC1	2.2	36.3 (≈ 20 µg/mL)	–
COc1cc2ncnc(Nc3cc4ccccc4cn3)c2cc1OC	3.9	0.3 (≈ 0.0997 µg/mL)	–
O=C(Nc1ccc(N2CCOCC2)cc1)c1nnc(NC(=O)C2(c3ccc(Cl)cc3)CCCC2)o1	3.72	8.7 (≈ 4.31 µg/mL)	–
COc1cc2ncnc(Nc3cc(NC(=O)c4ccnc(N5CCOCC5)c4)ccc3C)c2cc1OCCN1CCCCC1	3.35	813 (≈ 486 µg/mL)	–
Cc1nc(CSc2ccc(Cl)cc2)cc(N2CCOCC2)n1	3.38	107 (≈ 36 µg/mL)	–
CN1CCN(CC(=O)Nc2ccc(-c3cccn4c(=O)cc(N5CCOCC5)nc34)c3sc4ccccc4c23)CC1	2.6	5.4 (≈ 3.07 µg/mL)	–
CCn1c2ccccc2c2cc(NC(=O)N3CCOCC3)ccc21	3.2	2.9 (≈ 0.938 µg/mL)	–
COc1cc(C(=O)NS(=O)(=O)c2ccccc2C)ccc1Cc1cn(C)c2ccc(C(=O)NCCc3ccccc3)cc12	2.51	144 (≈ 86.1 µg/mL)	–
Nc1n[nH]c2nnc(-c3ccccc3)c(-c3ccccc3)c12	2.6	15.8 (≈ 4.54 µg/mL)	–
CCN(CCO)CCCOc1cc2ncnc(Nc3cc(CC(=O)Nc4cccc(F)c4F)[nH]n3)c2cc1OC	1.94	3 (≈ 1.67 µg/mL)	–
